Molecules are shown by their SMILES. Where two headings read alike, the source gives them in different places.

Data on three molecules can be found in US20240247080A1, “GLP1/GIP/NPY2 RECEPTOR TRIPLE AGONISTS” (Boehringer Ingelheim International GmbH, priority 2022, published 2024).

Type in all cases: cell-based
Common to all, as to conditions: CreLuc reporter gene assay
On the technique in general: In a reporter assay the amount or activity of a reporter protein is the signal.

The target in one experiment is T1, hGLP1R (Homo sapiens, UniProt P43220).
T1 construct: expressed in transfected cells; host or cells: HEK-293 cells carrying a CRE-luciferase reporter gene
T1 sequence (P43220 24-463): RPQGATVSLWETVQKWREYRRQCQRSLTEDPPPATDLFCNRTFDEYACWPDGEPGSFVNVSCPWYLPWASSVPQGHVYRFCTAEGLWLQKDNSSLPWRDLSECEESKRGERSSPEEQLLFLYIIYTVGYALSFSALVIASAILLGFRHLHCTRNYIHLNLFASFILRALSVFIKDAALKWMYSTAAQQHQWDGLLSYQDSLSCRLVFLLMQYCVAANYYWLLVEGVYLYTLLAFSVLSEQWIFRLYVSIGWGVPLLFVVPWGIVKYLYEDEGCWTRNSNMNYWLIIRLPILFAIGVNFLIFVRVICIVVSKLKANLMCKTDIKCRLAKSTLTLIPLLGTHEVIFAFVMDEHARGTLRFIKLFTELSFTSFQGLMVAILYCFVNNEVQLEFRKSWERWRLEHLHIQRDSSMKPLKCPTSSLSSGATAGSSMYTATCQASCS
Nature of the experiment: hGLP1R CreLuc reporter gene assay in 0.5% and 100% plasma. The method, boiled down: (§1)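 Agonist EC50s came from 8-concentration curves over four decades, fitted by non-linear variable-slope regression of CRE-driven luciferase luminescence. Cells were exposed 4 h at 37 °C, in buffer with 0.5% human plasma or in 100% plasma; GIPR was expressed in CHO cells, GLP-1R and NPY2R in HEK cells.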

A further experiment concerns the target T2, hGIPR (Homo sapiens, UniProt P48546).
T2 construct: expressed in transfected cells; host or cells: CHO cells carrying a CRE-luciferase reporter gene
T2 sequence (P48546 22-466): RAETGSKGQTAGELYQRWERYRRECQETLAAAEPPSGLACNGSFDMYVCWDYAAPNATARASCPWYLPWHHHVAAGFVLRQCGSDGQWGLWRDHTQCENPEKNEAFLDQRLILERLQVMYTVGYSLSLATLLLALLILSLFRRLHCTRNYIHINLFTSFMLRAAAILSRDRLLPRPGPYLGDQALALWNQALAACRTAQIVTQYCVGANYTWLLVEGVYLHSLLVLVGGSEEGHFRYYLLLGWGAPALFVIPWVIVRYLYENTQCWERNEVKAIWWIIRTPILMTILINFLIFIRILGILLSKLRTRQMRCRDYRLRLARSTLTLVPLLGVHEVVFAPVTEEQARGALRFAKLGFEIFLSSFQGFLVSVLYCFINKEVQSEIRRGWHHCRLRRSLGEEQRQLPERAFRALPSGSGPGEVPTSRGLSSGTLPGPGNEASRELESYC
The experiment in a line: hGIPR CreLuc reporter gene assay in 0.5% and 100% plasma. The method, boiled down: as §1

In another experiment the target is T3, hNPY2R (Homo sapiens, UniProt P49146).
T3 construct: expressed in transfected cells; host or cells: HEK-293 cells carrying a CRE-luciferase reporter gene
T3 sequence (P49146 1-381): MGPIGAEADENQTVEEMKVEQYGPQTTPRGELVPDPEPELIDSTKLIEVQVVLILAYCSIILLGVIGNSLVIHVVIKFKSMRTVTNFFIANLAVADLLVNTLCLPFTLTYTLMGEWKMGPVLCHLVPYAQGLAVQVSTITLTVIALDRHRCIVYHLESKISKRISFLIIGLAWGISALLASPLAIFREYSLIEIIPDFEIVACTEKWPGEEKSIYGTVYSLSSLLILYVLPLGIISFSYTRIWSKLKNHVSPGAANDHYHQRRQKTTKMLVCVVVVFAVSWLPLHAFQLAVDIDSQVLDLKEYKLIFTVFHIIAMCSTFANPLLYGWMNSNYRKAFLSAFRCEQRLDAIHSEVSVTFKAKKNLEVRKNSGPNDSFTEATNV
Nature of the experiment: hNPY2R CreLuc reporter gene assay in 0.5% and 100% plasma. In a few lines: as §1

The mark [1] stands for this setting: 0.5% human plasma, read-out: hGLP1R 0.5% hP.
The mark [2] stands for this setting: 0.5% human plasma, read-out: hGIPR 0.5% hP.
Setting [3] is: 100% human plasma, read-out: hGIPR 100% hP.
[4] abbreviates: 0.5% human plasma, read-out: hNPY2R 0.5% hP.

As for `CC[C@H](C)[C@H](NC(=O)[C@H](CO)NC(=O)[C@H](Cc1ccc(O)cc1)NC(=O)[C@H](CC(=O)O)NC(=O)[C@H](CO)NC(=O)[C@@H](NC(=O)[C@H](Cc1ccccc1)NC(=O)[C@@H](NC(=O)CNC(=O)[C@H](CCC(=O)O)NC(=O)C(C)(C)NC(=O)[C@@H](N)Cc1ccc(O)cc1)[C@@H](C)O)[C@@H](C)O)C(=O)NC(C)(C)C(=O)N[C@@H](CC(C)C)C(=O)N[C@@H](CCC(=O)O)C(=O)N[C@@H](CCCCN)C(=O)N[C@@H](CCC(N)=O)C(=O)N[C@@H](C)C(=O)N[C@@H](CCC(N)=O)C(=O)NC(C)(C)C(=O)N[C@@H](C)C(=O)N[C@@H](Cc1ccccc1)C(=O)N[C@H](C(=O)N[C@@H](CCC(=O)O)C(=O)N[C@@H](Cc1c[nH]c2ccccc12)C(=O)N[C@@H](CC(C)C)C(=O)N[C@@H](CC(C)C)C(=O)N[C@@H](CCCCNC(=O)[C@@H](N)CCCCNC(=O)CC[C@H](NC(=O)CC[C@H](NC(=O)CC[C@H](NC(=O)CC[C@H](NC(=O)CC[C@H](NC(=O)CC[C@H](NC(=O)CCCCCCCCCCCCCCCCCCC(=O)O)C(=O)O)C(=O)O)C(=O)O)C(=O)O)C(=O)O)C(=O)O)C(=O)NCC(=O)NCC(=O)N1CCC[C@H]1C(=O)N[C@@H](CO)C(=O)N[C@@H](CO)C(=O)NCC(=O)N[C@@H](C)C(=O)N[C@@H](CO)C(=O)N[C@@H](CC(C)C)C(=O)N[C@@H](CCCNC(=N)N)C(=O)N[C@@H](Cc1c[nH]cn1)C(=O)N[C@@H](Cc1ccc(O)cc1)C(=O)N[C@@H](Cc1ccc(O)cc1)C(=O)N[C@@H](CC(N)=O)C(=O)N[C@@H](Cc1c[nH]c2ccccc12)C(=O)N[C@@H](CC(C)C)C(=O)N[C@H](C(=O)N[C@@H](CCCNC(=N)N)C(=O)N[C@@H](CCC(N)=O)C(=O)N[C@@H](CCCNC(=N)N)C(=O)N[C@@H](Cc1ccc(O)cc1)C(N)=O)[C@@H](C)O)C(C)C` [Compound 109, Y-Aib-E-G-T-F-T-S-D-Y-S-I-Aib-L-E-K-Q-A-Q-Aib-A-F-V-E-W-L-L-K(1,3)-GGPSSGASLRHYYNWLTRQRY-NH2.C20DA-gGlu-gGlu-glu-gGlu-gGlu-Glu-eLys(1,2)], the EC50 at hGLP1R (setting [1]) was 0.28 nM; on hGIPR (setting [2]), 0.09 nM; on hGIPR (setting [3]) it was 0.64 nM; at hNPY2R (setting [4]), 10.8 nM.

For the molecule `CC[C@H](C)[C@H](NC(=O)[C@H](CC(C)C)NC(=O)[C@H](Cc1c[nH]c2ccccc12)NC(=O)[C@H](CCC(=O)O)NC(=O)[C@@H](NC(=O)[C@H](Cc1ccccc1)NC(=O)[C@H](C)NC(=O)C(C)(C)NC(=O)[C@H](CCC(N)=O)NC(=O)[C@H](C)NC(=O)[C@H](CCC(N)=O)NC(=O)[C@H](CCCCN)NC(=O)[C@H](CCC(=O)O)NC(=O)[C@H](CC(C)C)NC(=O)C(C)(C)NC(=O)[C@@H](NC(=O)[C@H](CO)NC(=O)[C@H](Cc1ccc(O)cc1)NC(=O)[C@H](CC(=O)O)NC(=O)[C@H](CO)NC(=O)[C@@H](NC(=O)[C@H](Cc1ccccc1)NC(=O)[C@@H](NC(=O)CNC(=O)[C@H](CCC(=O)O)NC(=O)C(C)(C)NC(=O)[C@@H](N)Cc1ccc(O)cc1)[C@@H](C)O)[C@@H](C)O)[C@@H](C)CC)C(C)C)C(=O)N[C@@H](CCCCNC(=O)[C@@H](N)CCCCNC(=O)CC[C@H](NC(=O)CC[C@H](NC(=O)CC[C@H](NC(=O)CC[C@H](NC(=O)CC[C@H](NC(=O)CC[C@H](NC(=O)CCCCCCCCCCCCCCCCCCC(=O)O)C(=O)O)C(=O)O)C(=O)O)C(=O)O)C(=O)O)C(=O)O)C(=O)NCC(=O)NCC(=O)N1CCC[C@H]1C(=O)N[C@@H](CO)C(=O)N[C@@H](CCC(=O)O)C(=O)N1CCC[C@H]1C(=O)N[C@@H](CCC(=O)O)C(=O)N[C@@H](CO)C(=O)N[C@@H](CC(C)C)C(=O)N[C@@H](CCCNC(=N)N)C(=O)N[C@@H](Cc1c[nH]cn1)C(=O)N[C@@H](Cc1ccc(O)cc1)C(=O)N[C@@H](Cc1ccc(O)cc1)C(=O)N[C@@H](CC(N)=O)C(=O)N[C@@H](Cc1c[nH]c2ccccc12)C(=O)N[C@@H](CC(C)C)C(=O)N[C@H](C(=O)N[C@@H](CCCNC(=N)N)C(=O)N[C@@H](CCC(N)=O)C(=O)N[C@@H](CCCNC(=N)N)C(=O)N[C@@H](Cc1ccc(O)cc1)C(N)=O)[C@@H](C)O` [Compound 122, Y-Aib-E-G-T-F-T-S-D-Y-S-I-Aib-L-E-K-Q-A-Q-Aib-A-F-V-E-W-L-I-K(1,3)-GGPSEPESLRHYYNWLTRQRY-NH2.C20DA-gGlu-gGlu-gGlu-gGlu-gGlu-gGlu-eLys(1,2)], the EC50 at hGLP1R (setting [1]) turned out to be 0.22 nM; on hGIPR (setting [2]) it was 0.08 nM; at hGIPR (setting [3]), 1.53 nM; at hNPY2R (100% human plasma, read-out: hNPY2R 100% hP) it was 78.9 nM.

Take `CC[C@H](C)[C@H](NC(=O)[C@H](CC(C)C)NC(=O)[C@H](Cc1c[nH]c2ccccc12)NC(=O)[C@H](CCC(=O)O)NC(=O)[C@@H](NC(=O)[C@H](Cc1ccccc1)NC(=O)[C@H](C)NC(=O)C(C)(C)NC(=O)[C@H](CCC(N)=O)NC(=O)[C@H](C)NC(=O)[C@H](CCC(N)=O)NC(=O)[C@H](CCCCN)NC(=O)[C@H](CCC(=O)O)NC(=O)[C@H](CC(C)C)NC(=O)C(C)(C)NC(=O)[C@@H](NC(=O)[C@H](CO)NC(=O)[C@H](Cc1ccc(O)cc1)NC(=O)[C@H](CC(=O)O)NC(=O)[C@H](CO)NC(=O)[C@@H](NC(=O)[C@H](Cc1ccccc1)NC(=O)[C@@H](NC(=O)CNC(=O)[C@H](CCC(=O)O)NC(=O)C(C)(C)NC(=O)[C@@H](N)Cc1ccc(O)cc1)[C@@H](C)O)[C@@H](C)O)[C@@H](C)CC)C(C)C)C(=O)N[C@@H](CCCCNC(=O)[C@@H](N)CCCCNC(=O)CC[C@H](NC(=O)CC[C@H](NC(=O)CC[C@H](NC(=O)CC[C@H](NC(=O)CC[C@H](NC(=O)CC[C@H](NC(=O)CCCCCCCCCCCCCCCCCCC(=O)O)C(=O)O)C(=O)O)C(=O)O)C(=O)O)C(=O)O)C(=O)O)C(=O)NCC(=O)NCC(=O)N1CCC[C@H]1C(=O)N[C@@H](CO)C(=O)N[C@@H](CO)C(=O)NCC(=O)N[C@@H](CCC(=O)O)C(=O)N[C@@H](CO)C(=O)N[C@@H](CC(C)C)C(=O)N[C@@H](CCCNC(=N)N)C(=O)N[C@@H](Cc1c[nH]cn1)C(=O)N[C@@H](Cc1ccc(O)cc1)C(=O)N[C@@H](Cc1ccc(O)cc1)C(=O)N[C@@H](CC(N)=O)C(=O)N[C@@H](Cc1c[nH]c2ccccc12)C(=O)N[C@@H](CC(C)C)C(=O)N[C@H](C(=O)N[C@@H](CCCNC(=N)N)C(=O)N[C@@H](CCC(N)=O)C(=O)N[C@@H](CCCNC(=N)N)C(=O)N[C@@H](Cc1ccc(O)cc1)C(N)=O)[C@@H](C)O` [Compound 127, Y-Aib-E-G-T-F-T-S-D-Y-S-I-Aib-L-E-K-Q-A-Q-Aib-A-F-V-E-W-L-I-K(1,3)-GGPSSGESLRHYYNWLTRQRY-NH2.C20DA-gGlu-gGlu-gGlu-gGlu-gGlu-gGlu-eLys(1,2)]: the EC50 at hGLP1R (setting [1]) was 0.04 nM; at hGLP1R (100% human plasma, read-out: hGLP1R 100% hP), 1.6 nM; at hGIPR (setting [2]), 0.05 nM; on hGIPR (setting [3]), 0.84 nM; on hNPY2R (setting [4]), 13.2 nM.
